Source: US11363816B2, “4-amino-6-(heterocyclic)picolinates and 6-amino-2-(heterocyclic)pyramidine-4-carboxylates and their use as herbicides” (Dow AgroSciences LLC, priority 2017, dated 2022)

How the values were obtained:
Format in all cases: in vivo
[1] = system: ANTAR=Anthemis arvensis (field chamomile); assay: Postemergent herbicidal activity in the greenhouse; details: 21-28 DAAA
Procedure: (§1) Seeds of the desired test plant species were planted in Sun Gro MetroMix® 306 planting mixture, which typically has a pH of 6.0 to 6.8 and an organic matter content of about 30 percent, in plastic pots with a surface area of 103.2 square centimeters (cm^2). When required to ensure good germination and healthy plants, a fungicide treatment and/or other chemical or physical treatment was applied. The plants were grown for 7-36 days (d) in a greenhouse with an approximate 14 hour (h) photoperiod which was maintained at about 18° C. during the day and 17° C. during the night. Nutrients and water were added on a regular basis and supplemental lighting was provided with overhead metal halide 1000-Watt lamps as necessary. The plants were employed for testing when they reached the second or third true leaf stage.
(§2) An aliquot of formulated Compound 5 (100 grams acid equivalent per liter (g ae/L); emusifiable concentrate (EC)), Compound 6 (100 g ae/L; EC) or Compound 7 (100 g ae/L; EC) was placed in a 25 mL glass vial and diluted in a volume of 1.25% (volume per volume (v/v)) aqueous Actirob B esterified rapeseed oil to obtain a stock solution. The concentrated stock solutions were diluted with an aqueous mixture of 1.25% v/v of aqueous Actirob B esterified rapeseed oil to provide the appropriate application rates. Compound requirements are based upon a 12 mL application volume at a rate of 187 liters per hectare (L/ha). Formulated compounds were applied to the plant material with an overhead Mandel track sprayer equipped with 8002E nozzles calibrated to deliver 187 L/ha over an application area of 0.503 square meters (m^2) at a spray height of 18 inches ([…]) above average plant canopy. Control plants were sprayed in the same manner with the solvent blank.
(§3) The treated plants and control plants were placed in a greenhouse as described above and watered by subirrigation to prevent washoff of the test compounds. After 20-22 d, the condition of the test plants as compared with that of the control plants was determined visually and scored on a scale of 0 to 100 percent where 0 corresponds to no injury and 100 corresponds to complete kill. […]
(§4) The values reported are means.

[2] = system: CHEAL=Chenopodium album L. (common lambsquarters); assay: Postemergent herbicidal activity in the greenhouse; details: 21-28 DAAA
Procedure: as §1, §2, §3, §4

[3] = system: CIRAR=Cirsium arvense (L.) Scop. (Canada thistle); assay: Postemergent herbicidal activity in the greenhouse; details: 21-28 DAAA
Procedure: as §1, §2, §3, §4

[4] = system: KCHSC=Kochia scoparia (L.) Schrad. (Kochia); assay: Postemergent herbicidal activity in the greenhouse; details: 21-28 DAAA
Procedure: as §1, §2, §3, §4

[5] = system: MATCH=Matricaria recutita L. (wild chamomile); assay: Postemergent herbicidal activity in the greenhouse; details: 21-28 DAAA
Procedure: as §1, §2, §3, §4

[6] = system: MATIN=Matricaria inodora (scentless mayweed); assay: Postemergent herbicidal activity in the greenhouse; details: 21-28 DAAA
Procedure: as §1, §2, §3, §4

[7] = system: PAPRH=Papaver rhoeas L. (common poppy); assay: Postemergent herbicidal activity in the greenhouse; details: 21-28 DAAA
Procedure: as §1, §2, §3, §4

[8] = system: POLCO=Polygonum convolvulus L. (wild buckwheat); assay: Postemergent herbicidal activity in the greenhouse; details: 21-28 DAAA
Procedure: as §1, §2, §3, §4

[9] = system: Res-PAPRH=Papaver rhoeas L. (common poppy) resistant to tribenuron and thifensulfuron (ALS) and 2,4-D; assay: Postemergent herbicidal activity in the greenhouse; details: 21-28 DAAA
Procedure: as §1, §2, §3, §4

[10] = system: SINAR=Sinapis arvensis L. (wild mustard); assay: Postemergent herbicidal activity in the greenhouse; details: 21-28 DAAA
Procedure: as §1, §2, §3, §4

[11] = system: VERSS=Veronica spp (speedwell); assay: Postemergent herbicidal activity in the greenhouse; details: 21-28 DAAA
Procedure: as §1, §2, §3, §4

[12] = system: PAPRH=Papaver rhoeas L. (common poppy); assay: Postemergence field trial, Granon, Spain (Table 7)
Procedure: (§5) Field trials were established in Spain (Banares and Granon) and Germany (Bielefeld) to evaluate the efficacy of Compound 5, Compound 6, and Compound 7. Trials were designed as randomized complete blocks with three to four replicates. Trials were established in winter wheat with natural weed population with plot sizes of 2-2.5 meters (m) by 6-8 m (width×length). The crops were grown using normal cultural practices for fertilization, seeding, and maintenance to ensure good growth of the crop. All herbicide treatments were applied post-emergence with applications made to the crops at the BBCH 21 to 23 growth stage. Herbicides were applied with backpack or bicycle sprayers using air as a propellant. The sprayers utilized flat fan air-induction spray nozzles calibrated to deliver a uniform spray pattern that provided thorough coverage of the foliage using a 200 L/ha spray volume. All treatments were applied with methylated seed oil (MSO) at 1.25% v/v. Phytotoxicity to the weeds was assessed visually at several intervals after application as percent overall control, compared to an untreated control plot. In general, three to four replicates were assessed for each treatment. All treatment results are an average of three or four replicates. Compound 5, Compound 6, and Compound 7 were applied as emulsifiable concentrate (EC) formulations at 100 g ae/L EC, respectively.

[13] = system: SINAR=Sinapis arvensis L. (wild mustard); assay: Postemergence field trial, Granon, Spain (Table 7)
Procedure: as §5

SMILES	Percent (%) Visual Control ANTAR ([1]; 10 g ae/ha) [%]	Percent (%) Visual Control ANTAR ([1]; 20 g ae/ha) [%]	Percent (%) Visual Control CHEAL ([2]; 10 g ae/ha) [%]	Percent (%) Visual Control CHEAL ([2]; 20 g ae/ha) [%]	Percent (%) Visual Control CIRAR ([3]; 10 g ae/ha) [%]	Percent (%) Visual Control CIRAR ([3]; 20 g ae/ha) [%]	Percent (%) Visual Control KCHSC ([4]; 10 g ae/ha) [%]	Percent (%) Visual Control KCHSC ([4]; 20 g ae/ha) [%]	Percent (%) Visual Control MATCH ([5]; 10 g ae/ha) [%]	Percent (%) Visual Control MATCH ([5]; 20 g ae/ha) [%]	Percent (%) Visual Control MATIN ([6]; 10 g ae/ha) [%]	Percent (%) Visual Control MATIN ([6]; 20 g ae/ha) [%]	Percent (%) Visual Control PAPRH ([7]; 10 g ae/ha) [%]	Percent (%) Visual Control PAPRH ([7]; 20 g ae/ha) [%]	Percent (%) Visual Control POLCO ([8]; 10 g ae/ha) [%]	Percent (%) Visual Control POLCO ([8]; 20 g ae/ha) [%]	Percent (%) Visual Control Res-PAPRH ([9]; 10 g ae/ha) [%]	Percent (%) Visual Control Res-PAPRH ([9]; 20 g ae/ha) [%]	Percent (%) Visual Control SINAR ([10]; 10 g ae/ha) [%]	Percent (%) Visual Control SINAR ([10]; 20 g ae/ha) [%]	further results
C#CCOC(=O)c1nc(-c2ccc3cc[nH]c3c2F)c(F)c(N)c1Cl [Compound 5, prop-2-yn-1-yl 4-amino-3-chloro-5-fluoro-6-(7-fluoro-1H-indol-6-yl)picolinate]	100	83.3	97.5	100	56.7	58.3	76.7	82.7	54.2	68.9	100	100	95	100	100	100	87.5	100	89	96.7	Percent (%) Visual Control VERSS ([11]; 10 g ae/ha): 77.5%; Percent (%) Visual Control VERSS ([11]; 20 g ae/ha): 80.8%; Percent (%) Visual Control PAPRH 68DAAA ([12]; 5 g ae/ha): 58.3%; Percent (%) Visual Control PAPRH 68DAAA ([12]; 10 g ae/ha): 72.7%; Percent (%) Visual Control PAPRH 68DAAA ([12]; 20 g ae/ha): 79.3%; Percent (%) Visual Control SINAR 48DAAA ([13]; 5 g ae/ha): 85%; Percent (%) Visual Control SINAR 48DAAA ([13]; 10 g ae/ha): 94.8%; Percent (%) Visual Control SINAR 48DAAA ([13]; 20 g ae/ha): 95%
N#CCOC(=O)c1nc(-c2ccc3cc[nH]c3c2F)c(F)c(N)c1Cl [Compound 6, cyanomethyl 4-amino-3-chloro-5-fluoro-6-(7-fluoro-1H-indol-6-yl)picolinate]	100	98.3	100	100	50	58.3	73.3	84.3	57	64	98.3	100	100	100	98.3	100	95	100	90	96	Percent (%) Visual Control VERSS ([11]; 10 g ae/ha): 86.3%; Percent (%) Visual Control VERSS ([11]; 20 g ae/ha): 86.5%; Percent (%) Visual Control PAPRH 68DAAA ([12]; 5 g ae/ha): 55%; Percent (%) Visual Control PAPRH 68DAAA ([12]; 10 g ae/ha): 69.3%; Percent (%) Visual Control PAPRH 68DAAA ([12]; 20 g ae/ha): 85.3%; Percent (%) Visual Control SINAR 48DAAA ([13]; 5 g ae/ha): 82.7%; Percent (%) Visual Control SINAR 48DAAA ([13]; 10 g ae/ha): 95%; Percent (%) Visual Control SINAR 48DAAA ([13]; 20 g ae/ha): 95.2%
Nc1c(F)c(-c2ccc3cc[nH]c3c2F)nc(C(=O)OCc2ccccc2)c1Cl [Compound 7, benzyl 4-amino-3-chloro-5-fluoro-6-(7-fluoro-1H-indol-6-yl)picolinate, reference compound]	99.3	99.3	92.5	95	30	46.7	65	73.3	57	50.5	100	100	85	100	97.5	98.8	92.5	92.5	90	94	Percent (%) Visual Control VERSS ([11]; 10 g ae/ha): 72.5%; Percent (%) Visual Control VERSS ([11]; 20 g ae/ha): 67.5%; Percent (%) Visual Control PAPRH 68DAAA ([12]; 5 g ae/ha): 45%; Percent (%) Visual Control PAPRH 68DAAA ([12]; 10 g ae/ha): 60%; Percent (%) Visual Control PAPRH 68DAAA ([12]; 20 g ae/ha): 74.3%; Percent (%) Visual Control SINAR 48DAAA ([13]; 5 g ae/ha): 73.3%; Percent (%) Visual Control SINAR 48DAAA ([13]; 10 g ae/ha): 80.7%; Percent (%) Visual Control SINAR 48DAAA ([13]; 20 g ae/ha): 89.3%
